Laboratory results published in patent US6569403B1, “Determining effects of external stimuli on the brain using PET” (Miicro, Incorporated, priority 1995, dated 2003).
Entries after “also recorded” stand apart in the source; their conditions may differ.

Columns and labels:
Format in all cases: in vivo
healthy human subjects [1] = test: PET with FDG: cerebral glucose metabolism (CMRglu) under behavioral clamp, drug versus placebo
healthy human subjects [2] = test: Profile of Mood States (POMS): subjective effects; details: fluoxetine 40 mg oral versus placebo
Description: (§1) Ninety minutes after administration of fluoxetine or placebo, subjects were repositioned in the PET scanner and a visual monitoring task (VMT) was initiated. The task assured a stable behavioral condition at the time of testing. Each subject was asked to press a button with his or her right thumb every time a dim light (50% of trials) was presented on a screen mounted in front of him or her and was asked to ignore every bright light (50%). The lights were presented under computer control at random intervals ranging from 4 to 7 sec. Each subjected completed four blocks of 96 trials each (approximately 10 min per block). Subjects also completed the Profile of Mood States (POMS) before the capsule and 20 min after injection of FDG.

healthy human subjects [3] = test: visual monitoring task (VMT): reaction time and accuracy
Description: as §1

[4] = ethanol 0.5 g/kg versus placebo (tonic water), FIG. 3
[5] = fluoxetine 40 mg oral versus placebo, voxel t-test images (FIG. 1)

SMILES: CCO [ethanol]
- rCMglu in frontal and temporal lobes, basal ganglia and limbic system (healthy human subjects [1]; [4]): affected
- rCMglu in the left hemisphere (healthy human subjects [1]; [4]): widespread increase

SMILES: CNCCC(Oc1ccc(C(F)(F)F)cc1)c1ccccc1 (stereo not shown) [fluoxetine]
- relative glucose metabolism in bilateral amygdaloid complex, hippocampal formation and ventral striatum (healthy human subjects [1]; [5]): decreased relative glucose metabolism; also recorded: decrease in CMRglu
- relative glucose metabolism in right superior parietal lobe (Brodmann area 7) (healthy human subjects [1]; [5]): increased relative metabolism; also recorded: increase in metabolism
- Average global CMRglu (healthy human subjects [1]; fluoxetine 40 mg oral, FDG about 90 min after dosing, four healthy subjects, mean of all slices): 8.22±0.86 mg 100 g^1 min^−1
- Average global CMRglu, fluoxetine scans versus placebo scans (healthy human subjects [1]; fluoxetine 40 mg oral, paired two-tailed t-test): not significantly different
- subjective effects as measured by the POMS (healthy human subjects [2]): no differences
- accuracy on the VMT (% correct) (healthy human subjects [3]; after fluoxetine 40 mg oral): 96.4±3.2 % correct
- median reaction time on the VMT (healthy human subjects [3]; after fluoxetine 40 mg oral, ± s.d.): 553 ± 64 ms
- effects on reaction time or accuracy on the VMT (healthy human subjects [3]; fluoxetine 40 mg oral versus placebo): no systematic effects
